Measurements reported in patent publication US10882856B2 (BeiGene, Ltd., priority 2017, dated 2021).

What was measured:
IDO1 [1] = biological target: T1, IDO1 (Homo sapiens, UniProt P14902); assay: Hela cell-based IDO1 assay; conditions: Hela cells
Method in brief: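 Kynurenine was measured at 480 nm in trichloroacetic acid-deproteinised supernatant after adding 2% 4-(dimethylamino)benzaldehyde. This supernatant came from HeLa cells seeded at 8000 per well in 96-well plates in phenol red-free DMEM with 10% FBS and, from 4 hours after seeding, exposed for 48 hours at 37 °C, 5% CO2 to DMSO-diluted compound dilutions, IFN-γ (final 100 ng/mL) and 0.4 mM L-Trp. The resulting data were fitted with a four-parameter logistic model in XLfit. Potency was taken from those fits.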

[2] = biological target: T2, cellular TDO2 in HEK293-TDO2 cells (Homo sapiens, UniProt P48775); assay: 293-TDO2 cell-based assay (Kyn colorimetric); conditions: 48 hours of incubation
T2 construct: expressed in transfected cells; host or cells: HEK293 (ATCC), stably transfected
Method in brief: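 HEK293 cells stably expressing TDO2 (10000/well, phenol red-free DMEM, 10% FBS) were dosed 4 h after plating and incubated 48 h at 37° C. Supernatant Kyn was measured after TCA precipitation by 4-(dimethylamino)benzaldehyde colour at 480 nm. IC50 came from four-parameter logistic fits.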

IDO1 [3] = biological target: T1, IDO1; assay: IDO1 enzymatic assay; assay type: biochemical; parameters: His tag (N); made in house; host or cells: E. coli; conditions: read-out: Enzyme IC50 IDO1
Method in brief: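 IC50 values reflect remaining IDO1 activity over increasing compound concentrations. The enzyme (50 nM, N-terminally His-tagged, purified from E. coli) was incubated for 1.5 hours at 24 °C with compound, 1.3 mM D-tryptophan, 5 mM L-ascorbic acid, methylene blue and 0.4 mg/mL catalase in 50 mM potassium phosphate pH 7.5 with 0.1% BSA. The slope of N'-formylkynurenine formation, read continuously at 321 nm for 1 hour, served as activity.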

T1 sequence (P14902 whole entry): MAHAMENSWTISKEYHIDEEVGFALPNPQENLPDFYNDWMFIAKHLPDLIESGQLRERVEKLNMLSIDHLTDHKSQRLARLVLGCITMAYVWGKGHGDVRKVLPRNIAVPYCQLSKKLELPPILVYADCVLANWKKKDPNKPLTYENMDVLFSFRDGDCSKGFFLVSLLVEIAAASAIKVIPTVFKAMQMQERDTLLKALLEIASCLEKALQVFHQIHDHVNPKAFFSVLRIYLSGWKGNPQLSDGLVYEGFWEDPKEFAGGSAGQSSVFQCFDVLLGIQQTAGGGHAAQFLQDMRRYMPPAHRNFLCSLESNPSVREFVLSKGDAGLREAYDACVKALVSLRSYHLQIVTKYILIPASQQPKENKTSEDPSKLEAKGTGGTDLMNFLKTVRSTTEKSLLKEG
T2 sequence (P48775 whole entry): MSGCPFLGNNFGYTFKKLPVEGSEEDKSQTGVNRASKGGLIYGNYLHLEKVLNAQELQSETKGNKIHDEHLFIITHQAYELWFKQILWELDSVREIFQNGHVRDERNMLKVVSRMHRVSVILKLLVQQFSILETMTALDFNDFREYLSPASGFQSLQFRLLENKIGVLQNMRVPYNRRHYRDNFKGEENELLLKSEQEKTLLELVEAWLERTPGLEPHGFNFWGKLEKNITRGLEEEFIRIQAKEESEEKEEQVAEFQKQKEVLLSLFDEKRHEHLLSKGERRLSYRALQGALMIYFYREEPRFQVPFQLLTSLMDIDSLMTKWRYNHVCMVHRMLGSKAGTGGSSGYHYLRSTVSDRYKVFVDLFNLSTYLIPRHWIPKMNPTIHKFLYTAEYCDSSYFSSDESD

Compound	EC50 (IDO1 [1]) [nM]	EC50 [2] [nM]	IC50 (IDO1 [3]) [nM]
COc1ccc([C@H]2CC[C@H]([C@@H](O)c3c(C4CC4)ccn4cncc34)CC2)cc1 [Example C101b, (R)-(7-cyclopropylimidazo[1,5-a]pyridin-8-yl)(4-(4-methoxyphenyl)cyclohexyl)methanol]	> 10000	> 10000	9400
Cc1ccccc1C1CCC(C(O)c2c(C3CC3)ccn3cncc23)CC1 (stereo not drawn) [Example C112, (7-cyclopropylimidazo[1,5-a]pyridin-8-yl)(4-(o-tolyl)cyclohexyl)methanol]	285	> 10000	92
COc1ccccc1C1CCC(C(O)c2c(C3CC3)ccn3cncc23)CC1 (stereo not drawn) [Example C113, (7-Cyclopropylimidazo[1,5-a]pyridin-8-yl)(4-(2-methoxyphenyl)cyclohexyl)methan]	149	> 10000	55
COc1cccc(C2CCC(C(O)c3c(C4CC4)ccn4cncc34)CC2)c1 (stereo not drawn) [Example C114, (7-cyclopropylimidazo[1,5-a]pyridin-8-yl)(4-(3-methoxyphenyl)cyclohexyl)methanol]	195	> 10000	51
OC(c1c(C2CC2)ccn2cncc12)C1CCC(c2ccccc2C(F)(F)F)CC1 (stereo not drawn) [Example C116]	1100	> 10000	160
OC(c1c(C2CC2)ccn2cncc12)C1CCC(c2ccc(OC3COC3)cc2)CC1 (stereo not drawn) [Example C117, (7-cyclopropylimidazo[1,5-a]pyridin-8-yl)(4-(4-(oxetan-3-yloxy)phenyl)cyclohexyl)methanol]	184	> 10000	35
OC(c1c(C2CC2)ccn2cncc12)C1CCC(c2ccc(OC3CCCC3)cc2)CC1 (stereo not drawn) [Example C118, (4-(4-(cyclopentyloxy)phenyl)cyclohexyl)(7-cyclopropylimidazo[1,5-a]pyridin-8-yl)methanol]	259	> 10000	120
OC(c1c(C2CC2)ccn2cncc12)C1CCC(c2ccc(OC3CCOCC3)cc2)CC1 (stereo not drawn) [Example C119, (7-cyclopropylimidazo[1,5-a]pyridin-8-yl)(4-(4-((tetrahydro-2H-pyran-4-yl)oxy)phenyl)cyclohexyl)methanol]	148	> 10000	39
OC(c1c(C2CC2)ccn2cncc12)C1CCC(c2ccc(C(F)(F)F)nc2)CC1 (stereo not drawn) [Example C120, (7-cyclopropylimidazo[1,5-a]pyridin-8-yl)(4-(6-(trifluoromethyl)pyridin-3-yl)cyclohexyl)methanol]	2180	> 10000	96
OC(c1c(C2CC2)ccn2cncc12)C1CCC(c2cccc3ccccc23)CC1 (stereo not drawn) [Example C121, (7-cyclopropylimidazo[1,5-a]pyridin-8-yl)(4-(naphthalen-1-yl)cyclohexyl)methanol]	125	> 10000	94
OC(c1c(C2CC2)ccn2cncc12)C1CCC(c2ccc3ccccc3c2)CC1 (stereo not drawn) [Example C122, (7-cyclopropylimidazo[1,5-a]pyridin-8-yl)(4-(naphthalen-2-yl)cyclohexyl)methanol]	382	> 10000	74
OC(c1c(C2CC2)ccn2cncc12)C1CCC(c2ccc3c(c2)OCO3)CC1 (stereo not drawn) [Example C123, (4-(benzo[dl][1,3]dioxol-5-yl)cyclohexyl)(7-cyclopropylimidazo[1,5-a]pyridin-8-yl) methanol]	372	> 10000	15
NC(=O)c1ccc([C@H]2CC[C@H]([C@H](O)c3c(C4CC4)ccn4cncc34)CC2)cc1 [Example C124]	236	> 10000	56
OC(c1c(C2CC2)ccn2cncc12)C1CCC(c2cccc3ncccc23)CC1 (stereo not drawn) [Example C126, (7-cyclopropylimidazo[1,5-a]pyridin-8-yl)(4-(quinolin-5-yl)cyclohexyl)methanol]	30	> 10000	29
OC(c1c(C2CC2)ccn2cncc12)C1CCC(c2ccnc3ccc(F)cc23)CC1 (stereo not drawn) [Example C128, (7-cyclopropylimidazo[1,5-a]pyridin-8-yl)(4-(6-fluoroquinolin-4-yl)cyclohexyl)methanol]	51	> 10000	39
OC(c1c(C2CC2)ccn2cncc12)C1CCC(c2ccnc3c(F)cccc23)CC1 (stereo not drawn) [Example C129, (7-cyclopropylimidazo[1,5-a]pyridin-8-yl)(4-(8-fluoroquinolin-4-yl)cyclohexyl)methanol]	51	> 10000	33
OC(c1c(C2CC2)ccn2cncc12)C1CCC(c2ccnc3ccccc23)CC1 (stereo not drawn) [Example C130, (7-cyclopropylimidazo[1,5-a]pyridin-8-yl)(4-(quinolin-4-yl)cyclohexyl)methanol]	93	> 10000	36
OC(c1c(C2CC2)ccn2cncc12)C1CCC(c2ccc(F)c(Cl)c2)CC1 (stereo not drawn) [Example C132, (4-(3-chloro-4-fluorophenyl)cyclohexyl)(7-cyclopropylimidazo[1,5-a]pyridin-8-yl)methanol]	384	> 10000	120
OC(c1c(C2CC2)ccn2cncc12)C1CCC(c2cccc(Cl)c2)CC1 (stereo not drawn) [Example C133, (4-(3-chlorophenyl)cyclohexyl)(7-cyclopropylimidazo[1,5-a]pyridin-8-yl)methanol]	256	> 10000	88

Results, then the compound that gave them:

EC50 (IDO1 [1]) [nM]	EC50 [2] [nM]	IC50 (IDO1 [3]) [nM]	Compound
6470	> 10000	> 10000	CC(C)c1ccc2cncn2c1[C@H](O)[C@H]1CC[C@H](c2cccc(Cl)c2)CC1 (single isomer, unassigned) [Example D168b]
14	> 10000	15	COc1cccc([C@H]2CC[C@H]([C@H](O)c3c(C(C)C)ccc4cncn34)CC2)c1 (single isomer, unassigned) [Example D169a]
5950	> 10000	7500	COc1cccc([C@H]2CC[C@H]([C@@H](O)c3c(C(C)C)ccc4cncn34)CC2)c1 (single isomer, unassigned) [Example D169b]
7940	> 10000	8820	O[C@@H](c1c(C2CC2)ccc2cncn12)C1CCN(c2ccccc2)CC1 (single isomer, unassigned) [Example D170b]
30	> 10000	15	O[C@H](c1c(C2CC2)ccc2cncn12)C1CCN(c2ccc(F)cc2)CC1 (single isomer, unassigned) [Example D171a]
5740	> 10000	8260	O[C@@H](c1c(C2CC2)ccc2cncn12)C1CCN(c2ccc(F)cc2)CC1 (single isomer, unassigned) [Example D171b]
33	> 10000	18	O[C@H](c1c(C2CC2)ccc2cncn12)C1CCN(c2cccc(Cl)c2)CC1 (single isomer, unassigned) [Example D173a]
7390	> 10000	2700	O[C@@H](c1c(C2CC2)ccc2cncn12)C1CCN(c2cccc(Cl)c2)CC1 (single isomer, unassigned) [Example D173b]
80	> 10000	15	O[C@H](c1c(C2CC2)ccc2cncn12)C1CCN(c2ccc(Cl)cc2)CC1 (single isomer, unassigned) [Example D174a]
5500	> 10000	> 10000	O[C@@H](c1c(C2CC2)ccc2cncn12)C1CCN(c2ccc(Cl)cc2)CC1 (single isomer, unassigned) [Example D174b]
7.7	> 10000	12	O[C@H](c1c(C2CC2)ccc2cncn12)C1CCN(c2ccc(F)c3ncccc23)CC1 (single isomer, unassigned) [Example D175a]
407	> 10000	740	O[C@@H](c1c(C2CC2)ccc2cncn12)C1CCN(c2ccc(F)c3ncccc23)CC1 (single isomer, unassigned) [Example D175b]
1470	> 10000	2300	O[C@@H](c1c(C2CC2)ccc2cncn12)C1CCN(c2ccc(Cl)c3ncccc23)CC1 (single isomer, unassigned) [Example D178b]
> 10000	> 10000	2800	O[C@@H](c1cc(Cl)cc2cncn12)[C@H]1CC[C@H](c2ccc(Cl)cc2)CC1 (single isomer, unassigned) [Example E101b]
> 10000	> 10000	1400	O[C@@H](c1cc(Cl)cc2cncn12)[C@H]1CC[C@H](c2cccc3ccccc32)CC1 (single isomer, unassigned) [Example E103b]
3700	> 10000	29	O[C@H](c1cc(Cl)cc2cncn12)[C@H]1CC[C@H](c2ccc3ccccc3c2)CC1 (single isomer, unassigned) [Example E104a]
